These molecules were tested against human NaV 1.8 (Homo sapiens, UniProt Q9Y5Y9) (assay: E-VIPR Assay Detecting and Measuring NaV Inhibition Properties). Conditions: HEK cells expressing a truncated form of human NaV 1.8; electrical stimulation, membrane potential FRET dyes; read-out: measured IC50 value in the E-VIPR Assay.
Sequence of human NaV 1.8 (Q9Y5Y9 126-399 limits assumed): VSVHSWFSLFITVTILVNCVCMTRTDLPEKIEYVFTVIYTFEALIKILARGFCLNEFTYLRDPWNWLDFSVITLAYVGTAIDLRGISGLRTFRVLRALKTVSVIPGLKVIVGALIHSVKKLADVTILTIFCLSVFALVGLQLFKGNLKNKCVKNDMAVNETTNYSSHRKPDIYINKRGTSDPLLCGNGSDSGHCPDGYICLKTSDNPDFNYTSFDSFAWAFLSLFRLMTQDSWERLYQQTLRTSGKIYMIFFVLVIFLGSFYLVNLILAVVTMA
Sequence of human NaV 1.8 (Q9Y5Y9 660-890 limits assumed): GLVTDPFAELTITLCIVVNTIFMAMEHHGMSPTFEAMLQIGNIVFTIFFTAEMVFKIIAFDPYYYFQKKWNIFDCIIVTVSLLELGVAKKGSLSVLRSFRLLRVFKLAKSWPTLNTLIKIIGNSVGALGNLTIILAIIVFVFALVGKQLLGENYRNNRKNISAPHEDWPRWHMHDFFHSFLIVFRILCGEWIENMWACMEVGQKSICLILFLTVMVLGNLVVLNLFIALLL
Sequence of human NaV 1.8 (Q9Y5Y9 1148-1722 limits assumed): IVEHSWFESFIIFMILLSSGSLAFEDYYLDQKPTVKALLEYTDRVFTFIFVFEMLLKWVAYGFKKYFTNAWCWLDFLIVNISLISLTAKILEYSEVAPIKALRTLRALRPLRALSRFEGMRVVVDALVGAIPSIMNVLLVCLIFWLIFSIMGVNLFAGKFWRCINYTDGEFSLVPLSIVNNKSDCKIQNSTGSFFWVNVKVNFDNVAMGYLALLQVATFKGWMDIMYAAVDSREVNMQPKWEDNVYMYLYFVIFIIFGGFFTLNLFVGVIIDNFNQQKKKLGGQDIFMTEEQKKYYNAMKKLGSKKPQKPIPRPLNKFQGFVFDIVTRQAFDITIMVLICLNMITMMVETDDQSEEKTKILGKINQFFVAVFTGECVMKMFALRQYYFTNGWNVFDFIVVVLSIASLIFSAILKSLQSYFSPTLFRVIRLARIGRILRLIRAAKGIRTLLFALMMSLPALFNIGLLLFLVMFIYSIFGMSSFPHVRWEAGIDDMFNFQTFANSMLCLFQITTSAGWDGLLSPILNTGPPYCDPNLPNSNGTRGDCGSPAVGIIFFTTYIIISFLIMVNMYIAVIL
Assay type: cell-based
Description: E-VIPR Assay Detecting and Measuring NaV Inhibition Properties
Sodium ion channels are voltage-dependent proteins that can be activated by inducing membrane voltage changes by applying electric fields. The electrical stimulation instrument and methods of use, referred to as E-VIPR, are described in International Publication No. WO 2002/008748 A3 and C.-J. Huang et al. Characterization of voltage-gated sodium channel blockers by electrical stimulation and fluorescence detection of membrane potential, 24 Nature Biotech. 439-46 (2006), both of which are incorporated by reference in their entirety. The instrument comprises a microtiter plate handler, an optical system for exciting the coumarin dye while simultaneously recording the coumarin and oxonol emissions, a waveform generator, a current- or voltage-controlled amplifier, and parallel electrode pairs that are inserted into assay plate wells. Under integrated computer control, this instrument passes user-programmed electrical stimulus protocols to cells within the wells of the microtiter plate.
16-20 hours prior to running the assay on E-VIPR, HEK cells expressing a truncated form of human NaV 1.8 with full channel activity were seeded into microtiter 384-well plates, pre-coated with matrigel, at a density of 25,000 cells per well. 2.5-5% KIR2.1 BacMam virus was added to the final cell suspension before seeding into cell plates. HEK cells were grown in Dulbecco's Modified Eagle's Medium (DMEM) supplemented with 10% FBS (Fetal Bovine Serum, qualified; Sigma #F4135), 1% NEAA (Non-Essential Amino Acids, Gibco #11140), 1% HEPES (Gibco #15630), 1% Pen-Strep (Penicillin-Streptomycin; Gibco #15140) and 5 μg/ml Blasticidin (Gibco #R210-01). Cells were expanded in 5-layer CellSTACK culture chambers or cell culture flasks with vented caps, with 90-95% humidity and 5% CO2.
Compound Loading Buffer (2× concentration): Na/TMA Cl Bath1 Buffer containing HS (omitted in experiments run in the absence of human serum (HS)) 50%, VABSC-1 1 mM, BSA 0.2 mg/ml (in Bath-1), KCl 9 mM, DMSO 0.625%.
Assay Protocol (7 Key Steps):
1) To reach the final concentration in each well, 375 nL of each compound was pre-spotted (in neat DMSO) into polypropylene compound plates at 240× desired final concentration from an intermediate stock concentration of 0.075 mM, in an 11-point dose response, 3-fold dilution, resulting in a top dose of 300 nM final concentration in the cell plate. Vehicle control (neat DMSO), and positive control (an established NaV1.8 inhibitor, 25 μM final in assay in DMSO) were added manually to the outermost columns of each plate respectively. The compound plate was backfilled with 45 μL per well of Compound Loading Buffer resulting in a 240-fold dilution of compound following a 1:1 transfer of compound into the cell plate (see Step 6). Final DMSO concentration for all wells in the assay was 0.625% (0.75% DMSO was supplemented to the Compound Loading Buffer for a final DMSO concentration of 0.625%). This assay dilution protocol was adjusted to enable a higher dose range to be tested in the presence of HS or if the final assay volume was altered.
2) Hexyl Dye Solution was prepared.
3) Cell plates were prepared. On the day of the assay, the media was aspirated, and the cells were washed three times with 80 μL of Bath-1 buffer, maintaining 25 μL residual volume in each well.
4) 25 μL per well of Hexyl Dye Solution was dispensed into the cell plates. The cells were incubated for 20 minutes at room temperature or ambient conditions in darkness.
5) 45 μL per well of Compound Loading Buffer was dispensed into compound plates.
6) The cell plates were washed three times with 80 μL per well of Bath-1 Buffer, leaving 25 µL of residual volume. Then 25 μL per well from compound plate was transferred to each cell plate. The mixture was incubated for 30 minutes at room temperature/ambient conditions. […]
In the case of `Cc1cc(C(C)(CO)C(F)(F)F)c(Cl)cc1-c1cc(=O)c2c(C(N)=O)nccc2[nH]1` (single isomer, unassigned) [Compound 365], the IC50 is reported as 500 to 2000 nM. `CC(C)(C)c1ccc(-c2cc(=O)c3ccccc3[nH]2)cc1` [Compound 5, 2-(4-tert-butylphenyl)-1H-quinolin-4-one] showed an IC50 of 500 to 2000 nM. `Cc1ccc(-c2cc(=O)c3ccccc3[nH]2)c(C)c1` [Compound 6, 2-(2,4-dimethylphenyl)-1H-quinolin-4-one] showed an IC50 of 2000 to 5000 nM. For `Cc1ccc(C(C)(C)C)cc1-c1cc(=O)c2ccccc2[nH]1` [Compound 7, 2-(5-tert-butyl-2-methyl-phenyl)-1H-quinolin-4-one], the IC50 was 500 to 2000 nM. With `Cc1cc(C2CC2)ccc1-c1cc(=O)c2ccccc2[nH]1` [Compound 8, 2-(4-cyclopropyl-2-methyl-phenyl)-1H-quinolin-4-one] the IC50 was 500 to 2000 nM. `Cc1c(-c2cc(=O)c3ccccc3[nH]2)ccc2c1CCC2` [Compound 12, 2-(4-methylindan-5-yl)-1H-quinolin-4-one] gave an IC50 of 500 to 2000 nM. For `Cc1ccc(C(F)(F)F)cc1-c1cc(=O)c2ccccc2[nH]1` [Compound 17, 2-[2-methyl-5-(trifluoromethyl)phenyl]-1H-quinolin-4-one], the IC50 was 2000 to 5000 nM. `COc1cc(C(F)(F)F)ccc1-c1cc(=O)c2ccccc2[nH]1` [Compound 19, 2-[2-methoxy-4-(trifluoromethyl)phenyl]-1H-quinolin-4-one] showed an IC50 of 2000 to 5000 nM. Molecule `COc1cc(C)c(-c2cc(=O)c3ccccc3[nH]2)cc1C` [Compound 23, 2-(4-methoxy-2,5-dimethyl-phenyl)-1H-quinolin-4-one] has an IC50 of 2000 to 5000 nM. `CCOc1cc(C(F)(F)F)ccc1-c1cc(=O)c2ccccc2[nH]1` [Compound 28, 2-[2-ethoxy-4-(trifluoromethyl)phenyl]-1H-quinolin-4-one] showed an IC50 of 2000 to 5000 nM. `Cc1ccc(C)c(-c2cc(=O)c3ccccc3[nH]2)c1` [Compound 52, 2-(2,5-dimethylphenyl)-1H-quinolin-4-one] was tested, and the IC50 was 2000 to 5000 nM. For `Cc1cc(OC(F)(F)F)ccc1-c1cc(=O)c2ccccc2[nH]1` [Compound 54, 2-[2-methyl-4-(trifluoromethoxy)phenyl]-1H-quinolin-4-one], the IC50 was 500 to 2000 nM. With `O=c1cc(-c2cc3c(cc2Cl)CCC3)[nH]c2ccccc12` [Compound 70, 2-(6-chloroindan-5-yl)-1H-quinolin-4-one] the IC50 was 2000 to 5000 nM. `COc1cc(C)c(C)cc1-c1cc(=O)c2ccccc2[nH]1` [Compound 72, 2-(2-methoxy-4,5-dimethyl-phenyl)-1H-quinolin-4-one] showed an IC50 of 2000 to 5000 nM. With `Cc1ccc(-c2cc(=O)c3ccccc3[nH]2)c(C)c1Cl` [Compound 74, 2-(3-chloro-2,4-dimethyl-phenyl)-1H-quinolin-4-one] the IC50 was 500 to 2000 nM. Molecule `Cc1cc(Cl)ccc1-c1cc(=O)c2ccccc2[nH]1` [Compound 75, 2-(4-chloro-2-methyl-phenyl)-1H-quinolin-4-one] has an IC50 of 2000 to 5000 nM. `Cc1cc(C(C)(C)C)ccc1-c1cc(=O)c2c[n+]([O-])ccc2[nH]1` [Compound 107, 2-(4-tert-butyl-2-methyl-phenyl)-6-oxido-1H-1,6-naphthyridin-6-ium-4-one] gave an IC50 of 500 to 2000 nM. Molecule `Cc1cc(C(C)(C)C)ccc1-c1cc(=O)c2cccnc2[nH]1` [Compound 111, 2-(4-tert-butyl-2-methyl-phenyl)-1H-1,8-naphthyridin-4-one] has an IC50 of 2000 to 5000 nM. `Cc1cc(Cl)c(Cl)cc1-c1cc(=O)c2ccccc2[nH]1` [Compound 117, 2-(4,5-dichloro-2-methyl-phenyl)-1H-quinolin-4-one] gave an IC50 of 500 to 2000 nM. For `Cc1cc(Cl)c(Cl)cc1-c1cc(=O)c2cnccc2[nH]1` [Compound 118, 2-(4,5-dichloro-2-methyl-phenyl)-1H-1,6-naphthyridin-4-one], the IC50 was 500 to 2000 nM. In the case of `Cc1cc(C)c(-c2cc(=O)c3c(C#N)cccc3[nH]2)cc1C` [Compound 123, 4-oxo-2-(2,4,5-trimethylphenyl)-1H-quinoline-5-carbonitrile], the IC50 is reported as 500 to 2000 nM. `Cc1cc(C)c(-c2cc(=O)c3ccccc3[nH]2)cc1C` [Compound 124, 2-(2,4,5-trimethylphenyl)-1H-quinolin-4-one] gave an IC50 of 500 to 2000 nM. Molecule `Cc1ccc2[nH]c(-c3ccc(C(C)(C)C)cc3C)cc(=O)c2c1` [Compound 126, 2-(4-tert-butyl-2-methyl-phenyl)-6-methyl-1H-quinolin-4-one] has an IC50 of 500 to 2000 nM. For `Cc1cc(C2(C#N)CC2)ccc1-c1cc(=O)c2ccccc2[nH]1` [Compound 138, 1-[3-methyl-4-(4-oxo-1H-quinolin-2-yl)phenyl]cyclopropanecarbonitrile], the IC50 was 2000 to 5000 nM. With `CCOC(=O)c1ccc(-c2cc(=O)c3ccccc3[nH]2)c(C)c1` [Compound 166, ethyl 3-methyl-4-(4-oxo-1H-quinolin-2-yl)benzoate] the IC50 was 2000 to 5000 nM. Molecule `COC(C)(C)c1ccc(-c2cc(=O)c3ccccc3[nH]2)c(C)c1` [Compound 180, 2-[4-(1-methoxy-1-methyl-ethyl)-2-methyl-phenyl]-1H-quinolin-4-one] has an IC50 of 500 to 2000 nM. In the case of `Cc1cc(-c2cc(=O)c3c[n+]([O-])ccc3[nH]2)c(C)nc1C(C)(C)C` [Compound 195, 2-(6-tert-butyl-2,5-dimethyl-3-pyridyl)-6-oxido-1H-1,6-naphthyridin-6-ium-4-one], the IC50 is reported as 500 to 2000 nM. Molecule `Cc1cc(-c2cc(=O)c3c(=O)[nH]ccc3[nH]2)c(C)nc1C(F)(F)F` [Compound 200, 2-[2,5-dimethyl-6-(trifluoromethyl)-3-pyridyl]-1,6-dihydro-1,6-naphthyridine-4,5-dione] has an IC50 of 500 to 2000 nM. For `COc1cccc2[nH]c(-c3ccc(C4(C(F)(F)F)CC4)cc3C)cc(=O)c12` [Compound 208, 5-methoxy-2-[2-methyl-4-[1-(trifluoromethyl)cyclopropyl]phenyl]-1H-quinolin-4-one], the IC50 was 500 to 2000 nM. `Cc1cc(C(C)(C)C)ccc1-c1cc(=O)c2cccc(C)c2[nH]1` [Compound 209, 2-(4-tert-butyl-2-methyl-phenyl)-8-methyl-1H-quinolin-4-one] was tested, and the IC50 was 500 to 2000 nM. `Cc1ccc(C(C)(C)C)cc1-c1cc(=O)c2c(C(N)=O)nccc2[nH]1` [Compound 212, 2-(5-tert-butyl-2-methyl-phenyl)-4-oxo-1H-1,6-naphthyridine-5-carboxamide] gave an IC50 of 500 to 2000 nM. For `Cc1nc(C(C)(C)C)ccc1-c1cc(=O)c2c(C(N)=O)nccc2[nH]1` [Compound 221, 2-(6-tert-butyl-2-methyl-3-pyridyl)-4-oxo-1H-1,6-naphthyridine-5-carboxamide], the IC50 was 500 to 2000 nM. Molecule `CCc1cc(-c2cc(=O)c3c(C(N)=O)nccc3[nH]2)c(C)cc1C` [Compound 224, 2-(5-ethyl-2,4-dimethyl-phenyl)-4-oxo-1H-1,6-naphthyridine-5-carboxamide] has an IC50 of 500 to 2000 nM. `CC(C)(C)c1ccc(-c2cc(=O)c3c(C(N)=O)nccc3[nH]2)c(F)c1` [Compound 228, 2-(4-tert-butyl-2-fluoro-phenyl)-4-oxo-1H-1,6-naphthyridine-5-carboxamide] was tested, and the IC50 was 500 to 2000 nM. In the case of `Cc1cc(-c2cc(=O)c3c(C(N)=O)nccc3[nH]2)c(C)cc1Cl` [Compound 231, 2-(4-chloro-2,5-dimethyl-phenyl)-4-oxo-1H-1,6-naphthyridine-5-carboxamide], the IC50 is reported as 500 to 2000 nM. Molecule `Cc1cc(C)c(C(C)C)cc1-c1cc(=O)c2c(C(N)=O)nccc2[nH]1` [Compound 234, 2-(5-isopropyl-2,4-dimethyl-phenyl)-4-oxo-1H-1,6-naphthyridine-5-carboxamide] has an IC50 of 500 to 2000 nM. For `CC1(C)CCC(C)(C)c2cc(-c3cc(=O)c4c(C(N)=O)nccc4[nH]3)ccc21` [Compound 239, 4-oxo-2-(1,1,4,4-tetramethyltetralin-6-yl)-1H-1,6-naphthyridine-5-carboxamide], the IC50 was 500 to 2000 nM.

Source: US20230382910A1, “HETEROARYL COMPOUNDS FOR THE TREATMENT OF PAIN” (VERTEX PHARMACEUTICALS INCORPORATED, priority 2022, published 2023)
